In patent US12209073B2, “Polymorphs of a dihydroorotate dehydrogenase (DHOD) inhibitor” (KIORA PHARMACEUTICALS GmbH, priority 2022, dated 2025):
Values after ≈ are worked out from the molar mass of the structure shown. “Also recorded” adds a separate entry of the source.

Experiments:
[1] = Accelerated storage stability (XRPD & HPLC); format: physicochemical
Description: Chemical Purity Determination by HPLC. Purity analysis was performed on an Agilent HP1100/Infinity II 1260 series system equipped with a diode array detector and using OpenLAB software. The full method details are provided below in Table 12: [table] HPLC indicated the material to have a purity of 99.6% (FIG. 12A). […] The sample was left for an additional 22 days (total 30 days storage) and re-analyzed by XRPD, appearing as Form A, lacking the additional peaks previously observed (FIG. 13B). It was therefore possible that contamination of sample on the instrument in the previous 8-day timepoint was the likely cause of the additional peaks, rather than a form chance or degradation. […] (92 J/g) (FIG. 16). PLM and SEM images indicate the particles to be a series of spherical agglomerates (ca. 50 to 100 μm in diameter), which consist of small (<10 μm) plate-like crystals (FIGS. 17A-17B). HPLC analysis indicated the sample maintained a high purity of 99.5% (FIG. 18A). […] There is a small hysteresis between adsorption and desorption. The sample was unchanged by XRPD post-GVS analysis. […]

[2] = Competitive slurrying of Form A and Form B; format: physicochemical; conditions: competitive slurrying of Form A and Form B in a range of solvents at 5, 25 and 50° C.
Description: The aim of this work was to investigate the order of stability of the scaled-up Form A and Form B via competitive slurrying of the materials in a range of solvents at 5° C., 25° C. and 50° C.
The proposed solvents were aliquoted (1 ml) into HPLC vials and held at 5° C., 25° C. and 50° C. respectively, equilibrating at 300 rpm. […] The saturated solutions were allowed to equilibrate overnight.
Approximately 300 mg of Form B, prepared as described previously in Example 5, and the Form A were added to a 20 ml scintillation vial. The vial was subjected to turbula mixing for over 2 hours to ensure the mixture was homogenous. Approximately 30 mg of a mixture of Form A and Form B was added to a series HPLC vials. The vials were placed at 5, 25 and 50° C., 300 rpm. The suspensions prepared previously were filtered through a PTFE syringe directly into each vial to suspend the prepared form mixture in a saturated solution of the target solvent. Polymorph turnover was investigated by taking a 30-50 μl aliquot of the suspension and analyzing by XRPD.

[3] = Gravimetric Vapor Sorption (GVS); format: physicochemical; conditions: for Hygroscopicity (GVS): 0-90% RH; for Hygroscopicity (GVS) / GVS mass uptake, equivalent of water / GVS mass uptake: 25° C.; for XRPD Post-GVS: after GVS isotherm; for GVS mass uptake, equivalent of water / GVS mass uptake: between 0 and 90% RH
Description: Gravimetric Vapor Sorption (GVS). Sorption isotherms were obtained using a SMS DVS Intrinsic moisture sorption analyzer, controlled by DVS Intrinsic Control software. The sample temperature was maintained at 25° C. by the instrument controls. The humidity was controlled by mixing streams of dry and wet nitrogen, with a total flow rate of 200 ml/min. The relative humidity was measured by a calibrated Rotronic probe (dynamic range of 1.0-100% RH), located near the sample. The weight change, (mass relaxation) of the sample as a function of % RH was constantly monitored by a microbalance (accuracy ±0.005 mg). Typically, 5-30 mg of sample was placed in a tared mesh stainless steel basket under ambient conditions. The sample was loaded and unloaded at 40% RH and 25° C. (typical room conditions). A moisture sorption isotherm was performed as outlined below (2 scans per complete cycle). The standard isotherm was performed at 25° C. at 10% RH intervals over a 0-90% RH range. Typically, a double cycle (4 scans) was carried out. Data analysis was carried out within Microsoft Excel using the DVS Analysis Suite. [table] The sample was recovered after completion of the isotherm and re-analyzed by XRPD.

[4] = Intrinsic dissolution rate (IDR) in pH 7.4 phosphate buffer; format: physicochemical; conditions: for XRPD post-IDR: after IDR in pH 7.4 phosphate buffer; for Dissolution rate (pH 7.4 buffer): pH 7.4 phosphate buffer
Description: In addition, the thermodynamic solubility and the IDR of the two forms was compared in selected media. In addition to the competitive slurrying, Form A and Form B were both submitted to thermodynamic solubility measurements in FaSSIF media, as well as IDR in pH 7.4 phosphate buffer. The results are shown in Table 19 The full reports for both measurements can be found in Appendix 2—Analytical Service Reports.

[5] = Thermodynamic solubility in FaSSIF; format: physicochemical; conditions: for XRPD post-TS (residual solid): after thermodynamic solubility in FaSSIF
Description: Thermodynamic Aqueous Solubility. Aqueous solubility was determined by suspending sufficient compound in relevant media to give a maximum final concentration of ≥10 mg/ml of the parent free-form of the compound. The suspension was equilibrated at 25° C., on a Heidolph plate shaker set to 750 rpm for 24 hours. The pH of the saturated solution was then measured, and the suspension filtered through a glass fiber C filter (particle retention 1.2 μm) and diluted appropriately. Quantitation was by HPLC with reference to a standard solution of approximately 0.15 mg/ml in DMSO. Different volumes of the standard, diluted and undiluted sample solutions were injected. The solubility was calculated using the peak areas determined by integration of the peak found at the same retention time as the principal peak in the standard injection. [table] In addition to the competitive slurrying, Form A and Form B were both submitted to thermodynamic solubility measurements in FaSSIF media, as well as IDR in pH 7.4 phosphate buffer. The results are shown in Table 19 The full reports for both measurements can be found in Appendix 2—Analytical Service Reports.

Oral bioavailability = conditions: in vivo, depending on formulation used
Description: (§1) The general tested characteristics of 3-(2,3,5,6-tetrafluoro-3′-trifluoromethoxy-biphenyl-4-ylcarbamoyl)-thiophene-2-carboxylic acid (PP-001) are shown below in Table 8.

[6] = Solubility and solvent selection assessment; format: physicochemical
Description: PP-001 (ca. 20 mg, Batch #1) was treated with increasing aliquots of solvent until either a clear solution or maximum of 80 vol ([…]) of solvent was added. Samples were left for […] at 25° C., 300 rpm, after each solvent addition before observations were recorded. Where possible, samples were heated to 50° C. and further observations were taken. Solutions at 25 or 50° C. were cooled to 5° C. at 0.1° C./min, 300 rpm and held overnight. Any suspensions at 50° C. were subjected to maturation cycling between RT/50° C. (4 hours per cycle). Solvents unsuitable for heating to 50° C. or cooling to 5° C. were subjected to evaporation, antisolvent addition at RT or maturation at RT, depending on the solvent.
After 24 h, any solutions at 5° C. were subjected to evaporation at RT with the lid removed. Samples subjected to evaporation were analyzed once dry. The remaining suspensions were left for 3 days at conditions before being extracted using an SPE cartridge and frit under positive pressure filtration.

[7] = Solvent assessment for lyophilization; format: physicochemical; conditions: maximum of 60 vol
Description: Preparation and solubility of amorphous PP-001. PP-001 was treated with increasing aliquots of solvent until a maximum of 60 vol (1800 μl) was added in a HPLC vial.
Samples that formed solutions were positive pressure filtered using a PTFE syringe filter to remove any remaining solid particulates. The solutions were then flash frozen in a dry ice/acetone bath and lyophilized overnight to remove the solvent. Solids isolated post-lyophilization were analyzed by XRPD and characterized.

[8] = Stability in artificial gastric juice, simulated intestinal fluid and PBS; format: in vitro ADME
Description: as §1

[9] = Stability in human plasma; format: in vitro ADME
Description: as §1

[10] = Stability at pH 2, pH 7.4 and pH 8.5; format: physicochemical
Description: as §1

pKa of PP-001 = format: physicochemical
Description: as §1

[11] = Solubility in 50 mM phosphate buffer; format: physicochemical
Description: as §1

[12] = LogP (measured) of PP-001; format: physicochemical
Description: as §1

O=C(Nc1c(F)c(F)c(-c2cccc(OC(F)(F)F)c2)c(F)c1F)c1ccsc1C(=O)O [Form A, 3-(2,3,5,6-tetrafluoro-3′-trifluoromethoxy-biphenyl-4-ylcarbamoyl)-thiophene-2-carboxylic acid]
XRPD after storage ([1]; 25° C./97% RH, 8 days, listed as PP-001 Form A): a small peak was gained at 8.1 2θ angle and a loss of a small peak at 17.6 2θ angle; also recorded: Small peak gain at 8.1 2Θ and a loss of small peaket 17.6 | XRPD after storage ([1]; 40° C./75% RH, 8 days, listed as PP-001 Form A): Unchanged | Relative thermodynamic stability of the forms [2]: thermodynamically more stable form; also recorded: preferred form over all conditions and solvents tested | Hygroscopicity (GVS) ([3]; listed as PP-001 Form A): mass uptake. Sample is non- hygroscopic | XRPD Post-GVS ([3]; listed as PP-001 Form A): Unchanged | GVS mass uptake, equivalent of water [3]: 0.03 mol | GVS mass uptake ([3]; listed as PP-001 Form A): 0.12 wt % | XRPD post-IDR [4]: Unchanged | Dissolution rate (pH 7.4 buffer) [4]: 0.071 mg/min/cm^2 | solubility thermodynamic at 24 h ([5]; FaSSIF, 25 °C, pH 6.4, fassif, thermodynamic from solid, FaSSIF, 25° C., 24 hours, read-out: Thermodynamic solubility (TS) in FaSSIF): 760 µg/mL (≈ 1590 µM) | XRPD post-TS (residual solid) [5]: Unchanged, residual | XRPD post-TS (residual solid) ([5]; listed as PP-001 Form A): largely unchanged; also recorded: XRPD unchanged in form plus NaCl reference peaks

O=C(Nc1c(F)c(F)c(-c2cccc(OC(F)(F)F)c2)c(F)c1F)c1ccsc1C(=O)O [Form B, 3-(2,3,5,6-tetrafluoro-3′-trifluoromethoxy-biphenyl-4-ylcarbamoyl)-thiophene-2-carboxylic acid]
HPLC purity after storage ([1]; 25° C./97% RH, 7 days): 99.4% | XRPD after storage ([1]; 25° C./97% RH, 7 days): no observable changes | XRPD after storage ([1]; 25° C./97% RH, 7 days, listed as PP-001 Form B): Unchanged | HPLC purity after storage ([1]; 40° C./75% RH, 7 days): 99.6% | XRPD after storage ([1]; 40° C./75% RH, 7 days): no observable changes | XRPD after storage ([1]; 40° C./75% RH, 7 days, listed as PP-001 Form B): Unchanged | Hygroscopicity (GVS) [3]: non-hygroscopic | XRPD Post-GVS [3]: unchanged | XRPD Post-GVS ([3]; listed as PP-001 Form B): Unchanged | GVS mass uptake [3]: 0.10 wt % | GVS mass uptake, equivalent of water [3]: 0.03 mol | GVS mass uptake ([3]; listed as PP-001 Form B): 0.10 wt % | XRPD post-IDR [4]: Unchanged | Dissolution rate (pH 7.4 buffer) [4]: 0.15 mg/min/cm^2 | Thermodynamic solubility (TS) in FaSSIF ([5]; FaSSIF, 25° C., 24 hours): 930 µg/mL | XRPD post-TS (residual solid) [5]: Unchanged, residual

O=C(Nc1c(F)c(F)c(-c2cccc(OC(F)(F)F)c2)c(F)c1F)c1ccsc1C(=O)O [PP-001, 3-(2,3,5,6-tetrafluoro-3′-trifluoromethoxy-biphenyl-4-ylcarbamoyl)-thiophene-2-carboxylic acid]
bioavailability (Oral bioavailability): 15 to 30% | Solubility in solvents ([6]; 25° C., dissolution in volumes <80 vol, in 15 of the solvents tested): good solubility | Solubility in solvents ([6]; 50° C., IPA, 1-propanol, ACN, MeOH:water (3%), MeOH:water (5%), EtOH:water (5%), IPA:water (5%) and IPA:water (25%)): Clear solutions | Solubility in solvents ([6]; aprotic, polar solvents such as THF, DMSO and acetone): higher solubility | Solubility in solvents ([6]; heptane, toluene, chloroform and water, up to 80 vol, heated to 50° C.): remained suspensions | Solubility for lyophilization ([7]; 1,4-dioxane): soluble | Solubility for lyophilization ([7]; THF:water (70:30)): soluble | Stability (stable for) ([8]; PBS pH 7.4): Stable for >6 h in artificial gastric juice, simulated | Stability (stable for) ([8]; artificial gastric juice): Stable for >6 h in artificial gastric juice, simulated | Stability (stable for) ([8]; simulated intestinal fluid): Stable for >6 h in artificial gastric juice, simulated | Stability (stable for) [9]: Stable for >6 h in artificial gastric juice, simulated | Stability (stable for) ([10]; pH 2 (HCl)): Stable for >16 h at pH 2 (HCl), pH 7.4 (trisbuffer), | Stability (stable for) ([10]; pH 7.4 (tris buffer)): Stable for >16 h at pH 2 (HCl), pH 7.4 (trisbuffer), | Stability (stable for) ([10]; pH 8.5 (tris buffer)): Stable for >16 h at pH 2 (HCl), pH 7.4 (trisbuffer), | pKa (pKa of PP-001): 2.23 | solubility ([11]; pH 4, aqueous buffer): 1.4 µg/mL (≈ 2.92 µM) | solubility ([11]; pH 7.4, aqueous buffer): 854 µg/mL (≈ 1780 µM) | solubility ([11]; pH 9, aqueous buffer): 833 µg/mL (≈ 1740 µM) | logP [12]: 4.19
